Values quoted from earlier work in US20260232602A1, “DRUG DELIVERY SYSTEMS AND METHODS COMPRISING POLYSIALIC ACID AND/OR OTHER POLYMERS” (Universidade de Santiago de Compostela, priority 2017, published 2026).

Details: stated with the drug's Mw and supplier

SMILES | Log P
CC(=O)O[C@@]12CO[C@@H]1C[C@H](O)[C@@]1(C)C(=O)[C@H](O)C3=C(C)[C@@H](OC(=O)[C@H](O)[C@@H](NC(=O)OC(C)(C)C)c4ccccc4)C[C@@](O)([C@@H](OC(=O)c4ccccc4)[C@H]21)C3(C)C [docetaxel] | 2.6
C/C(=C\c1csc(C)n1)[C@@H]1C[C@@H]2O[C@]2(C)CCC[C@H](C)[C@H](O)[C@@H](C)C(=O)C(C)(C)[C@@H](O)CC(=O)O1 [patupilone] | 3.7
